# Measured values reported in US10052320B2, “Substituted quinoxalines as FGFR kinase inhibitors” (ASTEX THERAPEUTICS LIMITED, priority 2011, dated 2018).
# Read-outs that look alike come from different tables or passages of the source.
# Tests used:
# FGFR4 (h) = FGFR4 (h) (Homo sapiens, UniProt P22455); assay: FGFR4 (enzymatic assay), TR-FRET; assay type: biochemical; details: read-out: FGFR 4 pIC50 (converted)
# Method: In a final reaction volume of 30 μL, FGFR4 (h) (60 ng/ml) was incubated with 50 mM HEPES pH 7.5, 6 mM MnCl2, 1 mM DTT, 0.1 mM Na3VO4, 0.01% Triton-X-100, 500 nM Btn-Flt3 and 5 μM ATP in the presence of compound (1% DMSO final). […] Time-Resolved Fluorescence Resonance Energy Transfer (TR-FRET) signal (ex340 nm. Em 620 nm, em 655 nm) was measured afterwards and results are expressed in RFU (Relative Fluorescence Units).
# KDR (h) (VEGFR2) = KDR (h) (VEGFR2) (Homo sapiens, UniProt P35968); assay: KDR (VEGFR2) (enzymatic assay), TR-FRET; assay type: biochemical
# Sequence of KDR (h) (VEGFR2) (P35968 20-1356): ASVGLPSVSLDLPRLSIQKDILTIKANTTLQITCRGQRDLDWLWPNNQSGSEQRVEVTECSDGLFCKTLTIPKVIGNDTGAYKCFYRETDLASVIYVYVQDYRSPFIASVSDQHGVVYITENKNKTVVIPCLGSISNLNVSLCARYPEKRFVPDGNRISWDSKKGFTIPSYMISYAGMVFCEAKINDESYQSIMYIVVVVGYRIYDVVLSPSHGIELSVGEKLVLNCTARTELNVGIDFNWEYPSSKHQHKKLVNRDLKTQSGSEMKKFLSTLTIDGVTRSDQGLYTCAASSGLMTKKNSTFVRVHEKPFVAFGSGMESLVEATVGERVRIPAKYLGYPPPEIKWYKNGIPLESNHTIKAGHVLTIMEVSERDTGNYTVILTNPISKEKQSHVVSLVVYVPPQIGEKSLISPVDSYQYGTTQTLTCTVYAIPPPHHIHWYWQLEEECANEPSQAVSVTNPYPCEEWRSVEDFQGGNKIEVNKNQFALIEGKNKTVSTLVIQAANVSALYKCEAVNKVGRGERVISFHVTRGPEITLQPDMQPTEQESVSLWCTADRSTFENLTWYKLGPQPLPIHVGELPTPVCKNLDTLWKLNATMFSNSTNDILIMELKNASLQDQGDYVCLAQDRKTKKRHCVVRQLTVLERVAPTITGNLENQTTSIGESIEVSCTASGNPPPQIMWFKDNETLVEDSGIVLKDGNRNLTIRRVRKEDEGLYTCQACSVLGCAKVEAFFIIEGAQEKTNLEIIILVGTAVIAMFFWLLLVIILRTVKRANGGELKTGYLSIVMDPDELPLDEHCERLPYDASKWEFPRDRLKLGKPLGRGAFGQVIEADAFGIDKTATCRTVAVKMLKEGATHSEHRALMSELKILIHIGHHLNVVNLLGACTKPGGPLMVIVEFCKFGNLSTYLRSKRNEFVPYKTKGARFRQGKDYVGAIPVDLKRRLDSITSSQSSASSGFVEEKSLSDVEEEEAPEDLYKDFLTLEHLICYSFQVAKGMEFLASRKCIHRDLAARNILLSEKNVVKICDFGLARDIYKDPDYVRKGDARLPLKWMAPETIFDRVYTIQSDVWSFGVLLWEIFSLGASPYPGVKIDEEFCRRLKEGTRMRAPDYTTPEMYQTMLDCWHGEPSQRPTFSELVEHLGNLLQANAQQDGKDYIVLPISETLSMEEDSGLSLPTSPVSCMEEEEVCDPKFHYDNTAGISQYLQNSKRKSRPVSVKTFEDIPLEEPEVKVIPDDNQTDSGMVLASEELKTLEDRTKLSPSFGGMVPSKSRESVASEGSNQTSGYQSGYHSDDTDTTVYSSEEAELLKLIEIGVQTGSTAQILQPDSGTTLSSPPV
# In short: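 TR-FRET readout (ex 340, em 620/655 nm) in RFU after EDTA stop with Eu-anti-phosphotyrosine and SA-XL665 for 60 min. The preceding 120-min room-temperature kinase step used 150 ng/ml KDR (h), 3 μM ATP, 500 nM biotinylated Flt3 peptide, MnCl2-containing HEPES buffer pH 7.5, 1% DMSO.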
# [1] = system: Ba/F3-FGFR1-transfected cells in the presence of 10 ng/ml murine IL3; assay: Ba/F3-FGFR1 (plus IL3) cellular proliferation counterscreen, Alamar Blue; assay type: cell-based; details: Mus musculus
# In short: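 Compound-treated FGFR1-transfected Ba/F3 cells were cultured for 24 h (37 °C, 5% CO2) in RPMI-1640 with 10% FBS, with 10 ng/ml murine IL3 added for the counterscreen only. Viability was read as resazurin fluorescence (540/590 nm) after a further 4 h incubation with Alamar Blue.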
# [2] = target: Ba/F3-KDR-transfected cells (Homo sapiens, UniProt P35968); assay: Ba/F3-KDR (minus IL3) cellular proliferation assay, Alamar Blue; assay type: cell-based; details: minus IL3
# Sequence of Ba/F3-KDR-transfected cells (P35968 whole entry, change not shown): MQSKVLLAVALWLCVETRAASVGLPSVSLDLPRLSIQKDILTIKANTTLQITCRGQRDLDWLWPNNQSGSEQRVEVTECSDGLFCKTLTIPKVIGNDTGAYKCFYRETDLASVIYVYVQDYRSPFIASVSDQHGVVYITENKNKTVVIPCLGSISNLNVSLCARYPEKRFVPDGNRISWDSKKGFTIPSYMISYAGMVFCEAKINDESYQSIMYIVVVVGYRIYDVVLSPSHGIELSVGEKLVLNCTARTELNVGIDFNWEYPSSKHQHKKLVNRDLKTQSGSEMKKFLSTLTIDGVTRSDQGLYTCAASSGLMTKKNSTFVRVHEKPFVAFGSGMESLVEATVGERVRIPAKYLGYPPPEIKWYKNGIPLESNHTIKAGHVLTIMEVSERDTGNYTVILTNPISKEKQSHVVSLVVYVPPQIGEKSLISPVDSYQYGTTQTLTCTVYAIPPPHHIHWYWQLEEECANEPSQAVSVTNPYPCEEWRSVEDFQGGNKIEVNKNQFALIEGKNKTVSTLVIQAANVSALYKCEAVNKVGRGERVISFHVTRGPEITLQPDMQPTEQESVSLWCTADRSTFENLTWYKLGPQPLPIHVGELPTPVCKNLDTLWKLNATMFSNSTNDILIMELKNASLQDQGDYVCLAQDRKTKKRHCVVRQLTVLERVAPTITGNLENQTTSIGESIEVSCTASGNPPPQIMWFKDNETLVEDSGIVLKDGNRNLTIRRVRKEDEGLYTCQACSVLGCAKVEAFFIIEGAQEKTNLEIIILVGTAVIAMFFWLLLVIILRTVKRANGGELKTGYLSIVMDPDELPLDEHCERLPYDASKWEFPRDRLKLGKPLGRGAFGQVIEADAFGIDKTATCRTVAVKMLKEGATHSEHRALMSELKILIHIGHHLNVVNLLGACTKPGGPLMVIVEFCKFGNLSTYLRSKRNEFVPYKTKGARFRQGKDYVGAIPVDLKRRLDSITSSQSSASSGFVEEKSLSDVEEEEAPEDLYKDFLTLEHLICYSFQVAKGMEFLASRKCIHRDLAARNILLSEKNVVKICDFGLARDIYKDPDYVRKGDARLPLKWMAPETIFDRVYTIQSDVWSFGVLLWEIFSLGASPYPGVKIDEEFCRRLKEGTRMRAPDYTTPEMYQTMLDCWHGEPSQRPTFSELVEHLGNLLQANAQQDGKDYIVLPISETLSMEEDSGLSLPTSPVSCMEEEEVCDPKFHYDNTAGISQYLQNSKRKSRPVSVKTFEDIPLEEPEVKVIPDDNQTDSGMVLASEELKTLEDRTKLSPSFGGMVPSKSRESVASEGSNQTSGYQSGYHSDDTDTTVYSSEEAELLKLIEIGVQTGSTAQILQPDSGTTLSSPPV
# In short: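 Readout is resazurin (Alamar Blue) fluorescence, ex 540/em 590 nm, after 4 h, following 24 h compound exposure of KDR-transfected Ba/F3 cells at 37° C, 5% CO2 in 10% FBS RPMI. Plus-IL3 arm adds 10 ng/ml murine IL3; otherwise same conditions.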
# [3] = target: Ba/F3-FGFR4-transfected cells (Homo sapiens, UniProt P22455); assay: Ba/F3-FGFR4 cellular proliferation assay, Alamar Blue; assay type: cell-based
# Sequence of Ba/F3-FGFR4-transfected cells (P22455 whole entry, change not shown): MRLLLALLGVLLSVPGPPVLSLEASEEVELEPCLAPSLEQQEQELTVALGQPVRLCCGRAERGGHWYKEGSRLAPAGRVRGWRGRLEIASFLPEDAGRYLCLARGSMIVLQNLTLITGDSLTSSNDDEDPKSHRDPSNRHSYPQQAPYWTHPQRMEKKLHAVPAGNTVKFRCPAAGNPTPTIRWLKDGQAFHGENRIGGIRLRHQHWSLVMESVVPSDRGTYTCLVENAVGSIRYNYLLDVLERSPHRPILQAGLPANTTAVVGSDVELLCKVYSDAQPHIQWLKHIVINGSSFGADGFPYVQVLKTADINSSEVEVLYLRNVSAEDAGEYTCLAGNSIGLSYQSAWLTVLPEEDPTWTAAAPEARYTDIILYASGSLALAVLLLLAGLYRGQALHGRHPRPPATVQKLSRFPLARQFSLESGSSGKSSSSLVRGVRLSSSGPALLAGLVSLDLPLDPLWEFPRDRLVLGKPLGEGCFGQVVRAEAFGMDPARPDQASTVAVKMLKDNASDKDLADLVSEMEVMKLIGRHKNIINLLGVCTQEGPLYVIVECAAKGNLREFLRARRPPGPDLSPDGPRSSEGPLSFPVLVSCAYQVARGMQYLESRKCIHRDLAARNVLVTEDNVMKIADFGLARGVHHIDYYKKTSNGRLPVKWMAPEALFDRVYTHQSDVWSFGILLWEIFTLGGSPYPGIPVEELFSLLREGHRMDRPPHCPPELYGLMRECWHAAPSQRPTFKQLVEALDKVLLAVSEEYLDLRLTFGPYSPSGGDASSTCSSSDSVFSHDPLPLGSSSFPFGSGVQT
# Method: Ba/F3-FGFR4 (Cellular Proliferation Assay)
# In a 384 well plate, 100 nl of compound dilution in DMSO was sprayed before adding 50 μl cell culture medium (phenol red free RPMI-1640, 10% FBS, 2 mM L-Glutamine and 50 μg/ml Gentamycin) containing 20000 cells per well of Ba/F3-FGFR4-transfected cells. Cells were put in an incubator at 37° C. and 5% CO2. After 24 hours, 10 μl of Alamar Blue solution (0.5 mM K3Fe(CN)6, 0.5 mM KaFe(CN)6, 0.15 mM Resazurin and 100 mM Phosphate Buffer) was added to the wells, incubated for 4 hours at 37° C. and 5% CO2 before RFU's (Relative Fluorescence Units) (ex. 540 nm., em. 590 nm.) were measured in a flurorescence plate reader.
# [4] = plus IL3, 384 well, read-out: BAF3-FGFR 1 (PLUS IL3) 384 well pIC50 (converted)
# [5] = plus IL3, 96 well, read-out: BAF3-FGFR 1 (PLUS IL3) 96 well pIC50 (converted)
# Sequence of FGFR4 (h) (P22455 22-802): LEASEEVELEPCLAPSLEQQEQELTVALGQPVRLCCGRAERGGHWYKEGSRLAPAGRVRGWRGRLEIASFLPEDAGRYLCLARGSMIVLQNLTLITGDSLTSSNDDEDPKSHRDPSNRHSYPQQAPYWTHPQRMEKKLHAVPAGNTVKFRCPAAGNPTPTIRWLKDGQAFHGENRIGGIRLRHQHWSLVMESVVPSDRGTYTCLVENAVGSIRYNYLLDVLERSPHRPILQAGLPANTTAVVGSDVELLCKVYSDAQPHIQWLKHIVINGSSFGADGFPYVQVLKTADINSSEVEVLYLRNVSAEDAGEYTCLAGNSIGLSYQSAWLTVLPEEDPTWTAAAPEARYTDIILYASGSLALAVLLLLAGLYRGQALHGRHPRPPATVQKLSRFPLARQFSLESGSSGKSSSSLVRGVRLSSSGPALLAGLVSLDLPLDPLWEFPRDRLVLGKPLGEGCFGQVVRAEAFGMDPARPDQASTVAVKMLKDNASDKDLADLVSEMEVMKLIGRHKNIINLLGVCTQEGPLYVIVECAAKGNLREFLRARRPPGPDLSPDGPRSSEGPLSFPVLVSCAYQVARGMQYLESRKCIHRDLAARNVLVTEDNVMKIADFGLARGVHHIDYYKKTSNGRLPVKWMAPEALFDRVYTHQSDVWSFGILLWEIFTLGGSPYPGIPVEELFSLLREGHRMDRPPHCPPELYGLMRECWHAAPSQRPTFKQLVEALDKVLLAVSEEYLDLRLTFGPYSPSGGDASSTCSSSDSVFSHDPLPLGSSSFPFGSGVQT
SMILES,IC50 (FGFR4 (h)) [nM],IC50 (KDR (h) (VEGFR2)) [nM],"IC50 [1, 4] [µM]",BAF3-KDR (MIN IL3) 384 well pIC50 [2],BAF3-FGFR4 pIC50 [3],"IC50 [1, 5] [µM]",BAF3-KDR (MIN IL3) 96 well pIC50 [2]
COCCCN(c1cc(OC)cc(OC)c1)c1ccc2ncc(-c3ccn(C)c3)nc2c1 [Compound 3],38.9,126,> 10,5.07,6.4,–,–
COCCN(c1cc(OC)cc(OC)c1)c1ccc2ncc(-c3ccn(C)c3)nc2c1 [Compound 6],24.5,107,> 10,5.18,5.6,–,–
COc1cc(OC)cc(N(CCNC(C)C)c2ccc3ncc(-c4ccn(C)c4)nc3c2)c1 [Compound 8],3.47,20,> 10,6.19,7.2,–,–
COc1cc(OC)cc(N(CCO)c2ccc3ncc(-c4cccnc4)nc3c2)c1 [Compound 9],52.5,295,> 10,5.12,5.8,–,–
COc1cc(OC)cc(N(CCNC(C)C)c2ccc3ncc(-c4cccnc4)nc3c2)c1 [Compound 10],23.4,295,> 10,5.56,6.6,–,–
COc1cc(OC)cc(N(CCO)c2ccc3ncc(-c4ccncc4)nc3c2)c1 [Compound 11],41.7,269,> 10,5.1,5.9,–,–
COc1cc(OC)cc(N(CCNC(C)C)c2ccc3ncc(-c4ccncc4)nc3c2)c1 [Compound 12],20.4,95.5,> 10,5.53,6.8,–,–
CNC(=O)c1cc(-c2cnc3ccc(N(CCNC(C)C)c4cc(OC)cc(OC)c4)cc3n2)ccn1 [Compound 14],41.7,490,~7.08,5.35,6.8,–,–
COc1cc(OC)cc(N(CCNC(C)C)c2ccc3ncc(-c4ccc(N)nc4)nc3c2)c1 [Compound 17],8.04,94.4,~7.76,5.82,~7.11,–,–
COc1cc(OC)cc(N(CC2CC2)c2ccc3ncc(C#Cc4ccncc4)nc3c2)c1 [Compound 23],> 1000,> 1000,> 10,<5,<5,5.89,5.36
COc1cc(OC)cc(N(CC2CC2)c2ccc3ncc(-c4cn(CCN5CCOCC5)nn4)nc3c2)c1 [Compound 24],191,832,> 10,<5,~5.1,> 10,<5
CNC(=O)c1cc(-c2cnc3ccc(N(CCN4CCCC4=O)c4cc(OC)cc(OC)c4)cc3n2)ccn1 [Compound 25],> 1000,> 1000,> 10,<5,<5,–,–
COc1cc(OC)cc(N(CC2CC2)c2ccc3ncc(-n4cnc(C)c4)nc3c2)c1 [Compound 30],214,501,> 10,5.07,<5.35,> 10,5.11
COc1cc(OC)cc(N(CC2CC2)c2ccc3ncc(-n4ccc(C)n4)nc3c2)c1 [Compound 31],776,> 1000,> 10,<5,<5,> 10,–
COc1cc(OC)cc(N(CC2CC2)c2ccc3ncc(-n4ccnc4C)nc3c2)c1 [Compound 32],> 1000,> 1000,> 10,<5,<5,> 10,–
COc1cc(OC)cc(N(CC2CC2)c2ccc3ncc(-c4cnnn4C)nc3c2)c1 [Compound 72],> 1000,> 1000,> 10,–,<5,7.94,–

SMILES,IC50 (FGFR4 (h)) [nM],IC50 (KDR (h) (VEGFR2)) [nM],"IC50 [1, 4] [µM]",BAF3-KDR (MIN IL3) 384 well pIC50 [2],BAF3-FGFR4 pIC50 [3],"IC50 [1, 5] [µM]",BAF3-KDR (MIN IL3) 96 well pIC50 [2]
CNCCN(c1cc(OC)cc(OC)c1)c1ccc2ncc(-c3ccc(NC(=O)OC(C)(C)C)nc3)nc2c1 [Compound 81],63.1,209,–,5.62,5.9,–,–
COc1cc(OC)cc(N(CC2CC2)c2ccc3ncc(-c4nnn(C)n4)nc3c2)c1 [Compound 82],> 1000,> 1000,–,<5,<5,–,<5
COc1cc(OC)cc(N(CC2CC2)c2ccc3ncc(C(=O)NCCN4CCOCC4)nc3c2)c1 [Compound 96],> 1000,> 1000,–,<5,<5,–,–
COc1cc(OC)cc(N(CC2CC2)c2ccc3ncc(-c4nccs4)nc3c2)c1 [Compound 97],1050,> 10000,–,<5,<5,–,–
COc1cc(OC)cc(N(CC2CC2)c2ccc3ncc(Nc4nccs4)nc3c2)c1 [Compound 98],> 1000,> 1000,–,<5,<5,–,–
COc1cc(OC)cc(N(CC2CC2)c2ccc3ncc(C(=O)NCc4ccc(F)cc4)nc3c2)c1 [Compound 101],> 1000,> 1000,–,<5,<5,–,–
COc1cc(OC)cc(N(CC2CC2)c2ccc3ncc(Nc4nncs4)nc3c2)c1 [Compound 102],> 1000,> 1000,–,<5,<5,–,–
COc1cc(OC)cc(N(CC2CC2)c2ccc3ncc(-c4cccn4C)nc3c2)c1 [Compound 103],> 1000,> 1000,–,<5,<5,–,–
COc1cc(OC)cc(N(CC2CC2)c2ccc3ncc(-n4cnc(CO)c4)nc3c2)c1 [Compound 105],132,741,–,<5,5.53,–,–
COc1cc(OC)cc(N(CCO)c2ccc3ncc(-c4ccc(N)nc4)nc3c2)c1 [Compound 106],19.5,178,–,5.335,6.3,–,–
CNC(=O)c1cc(-c2cnc3ccc(N(CCN4CCCC4CO)c4cc(OC)cc(OC)c4)cc3n2)ccn1 (centres unmarked) [Compound 109],251,200,–,–,6.2,–,–
CNC(=O)c1cc(-c2cnc3ccc(N(CCNCC(F)(F)F)c4cc(OC)cc(OC)c4)cc3n2)ccn1 [Compound 113],170,> 1000,–,<5,5.5,–,–
COc1cc(OC)cc(N(CCCO)c2ccc3ncc(-c4ccc(C)nc4)nc3c2)c1 [Compound 115],38,309,–,5.06,5.7,–,–
COc1cc(OC)cc(N(CCNC(C)C)c2ccc3ncc(-c4ccccc4)nc3c2)c1 [Compound 121],7.94,49,–,~5.3,6.4,–,–
COc1cc(OC)cc(N(CCCO)c2ccc3ncc(-c4ccc(N(C)C(=O)OC(C)(C)C)nc4)nc3c2)c1 [Compound 125],174,> 1000,–,<5,<5,–,–
COc1cc(OC)cc(N(CCCO)c2ccc3ncc(-c4ccnc(C(=O)NCCCCN)c4)nc3c2)c1 [Compound 126],117,661,–,<5,5.1,–,–
